Literature values in patent US20140294923A1, “ACTH FOR TREATMENT OF MIGRAINE HEADACHE” (priority 2013, published 2014).

Tested on: CGRP release
Conditions: experimental models; Ulrich-Lai 2001

## ACTH (SYSMEHFRWGKPVGKKRRPVKVYPDGAEDQLAEAFPLEF)
  release of CGRP: inhibit the release of CGRP
